Results taken from paper PMC9816411, “Host-derived chimeric peptides clear the causative bacteria and augment host innate immunity during infection: A case study of HLB in citrus and fire blight in apple” (Frontiers in Plant Science, 2022).
Ends that are not written are not given here.

What was measured:
E. coli BL21 = conditions: BL21, 24 h
[1] = tested on: E. coli strain BL21 (and, in some cases, ATCC25922); conditions: BL21, 24 h

Sequence | IC50 (E. coli BL21) [µM] | IC99 (~MIC) (E. coli BL21) [µM] | MIC [1] [µM]
KKLPKEILKILGSGYGSLPKEILKILELKK [Gen-1] | 10.22 ± 0.07 | 11.4 ± 0.07 | 5 to 10
RLPEAFQWQRRLRRWRRPDSPGRRWWRWWR [UGK-5] | – | – | 5 to 10
FQWQRNIRKVR [11P-2] | – | – | >20
KPRGSEQLQELTRRLLDSPLERRFWQWMRR [UGK-37] | – | – | >20
FWQRRIRRWRRGSGYGSPGRRWWRWWR [27P-2] | – | – | 5 to 10
FWQRRIRRWRRGSGYGSPGKKLIKKILKIL [30P-2] | – | – | 1.25 to 2.5
KKLIKKILKIL [11P-1] | 12.9 ± 0.62 | 29.38 ± 0.75 | 10 to 20
RLPEAFQWQRNIRKVRRPDSPGRRWWRWWR [UGK-9] | – | – | 5 to 10
QPKRLEELLEKLKSLEGSKAHEKLHDWTRK [UGK-49] | – | – | >20
RRWWRWWRGSGYGSPGFWQRRIRRWRR [27P-1] | – | – | >20
RRWWRWWRGSYGSVYGSPGFWQRRIRRWRR [UGI-7] | – | – | 5 to 10
KPRLSEQLQELTRRLLDSPLERRWWEWWRR [UGK-33] | – | – | >20
IERSRNLDWYKGPTLLDALKNLNEGKRPSDK [I31LB] | – | – | >20
FWQRRIRRWRR [11P-3] | 49 ± 2.79 | 160.80 ± 3.25 | >20
KRPEELLQKLKSLEGSKAHLQHHDWTSK [UGK-41] | – | – | >20
LPKRLEELLQKLKSLEGSKAHEKLHDWTRK [UGK-45] | – | – | >20
RRWWRWWR [8P-1] | – | – | >20
KPRGSEQLQELTRRLLDSPLERRWWEWMRR [UGK-29] | – | – | >20
IERSTNLDWYKGPTLL [16P-1] | – | – | >20
RLPKAFQWQRRLRRWRRPYSPGRRWWRWWR [UGK-1] | – | – | 5 to 10
